According to PubChem BioAssay AID256 (DTP/NCI, 2004):
Values joined by “and” are separate entries in the source; they are usually repeats but may differ in a detail not shown here. Identical values can stand only once. Inconclusive results and toxic doses are left out.

Tested on: CD2F1 mice, L1210 leukemia ip, survival T/C
Test: NCI In Vivo Anticancer Drug Screen. Data for tumor model L1210 Leukemia (intraperitoneal) in CD2F1 (CDF1) mice
Settings: higher = longer survival
Summary of the method: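 Read-out first: treated-group measurement over vehicle-control measurement, expressed as a ratio. Animals bore a transplanted tumor line and were dosed with compound or vehicle.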

[1] = endpoint: mean survival time, dose: 100.0 mg/kg/injection, schedule: Q04DX003 (ip), vehicle: saline with Tween-80
[2] = endpoint: mean survival time, dose: 200.0 mg/kg/injection, schedule: Q04DX003 (ip), vehicle: saline with Tween-80
[3] = endpoint: mean survival time, dose: 400.0 mg/kg/injection, schedule: Q04DX003 (ip), vehicle: saline with Tween-80

`CCCCCCCCCCCCC[n+]1ccc(C#N)cc1` was tested, and the T/C (endpoint: mean survival time, dose: 7.5 mg/kg/injection, schedule: Q01DX001 (ip), vehicle: saline) was 102 % of control, the T/C (endpoint: mean survival time, dose: 7.5 mg/kg/injection, schedule: Q01DX009 (ip), vehicle: saline) was 107 % of control and the T/C (endpoint: mean survival time, dose: 15.0 mg/kg/injection, schedule: Q01DX001 (ip), vehicle: saline) was 94 % of control. The T/C (endpoint: mean survival time, dose: 15.0 mg/kg/injection, schedule: Q01DX009 (ip), vehicle: saline) was 101 % of control and the T/C (endpoint: mean survival time, dose: 30.0 mg/kg/injection, schedule: Q01DX001 (ip), vehicle: saline) was 97 % of control.

In the case of `COC(C(=O)C(O)C(C)O)C1CC2C=C3C=C(OC4CC(OC5CC(O)C(OC)C(C)O5)C(OC(C)=O)C(C)O4)C(C)C(=O)C3=C(O)C2=C(O)C1OC1CC(OC2CC(OC3CC(C)(O)C(O)C(C)O3)C(O)C(C)O2)C(O)C(C)O1` (stereo not given), the T/C (endpoint: mean survival time, dose: 0.25 mg/kg/injection, schedule: Q01DX009 (ip), vehicle: saline with Tween-80) is reported as 92 % of control and 101 % of control and 104 % of control, the T/C (endpoint: mean survival time, dose: 0.5 mg/kg/injection, schedule: Q01DX009 (ip), vehicle: saline with Tween-80) is reported as 100 % of control and 101 % of control (2×) and the T/C (endpoint: mean survival time, dose: 0.5 mg/kg/injection, schedule: Q01DX009 (ip), vehicle: saline) is reported as 124 % of control. The T/C (endpoint: mean survival time, dose: 1.0 mg/kg/injection, schedule: Q01DX009 (ip), vehicle: saline with Tween-80) was 101 % of control and 102 % of control, the T/C (endpoint: mean survival time, dose: 1.0 mg/kg/injection, schedule: Q01DX009 (ip), vehicle: saline) was 98 % of control and the T/C (endpoint: mean survival time, dose: 2.0 mg/kg/injection, schedule: Q01DX009 (ip), vehicle: saline with Tween-80) was 121 % of control and 108 % of control. The T/C (endpoint: mean survival time, dose: 4.0 mg/kg/injection, schedule: Q01DX009 (ip), vehicle: saline) was 115 % of control, the T/C (endpoint: mean survival time, dose: 8.0 mg/kg/injection, schedule: Q01DX009 (ip), vehicle: saline with Tween-80) was 189 % of control and the T/C (endpoint: mean survival time, dose: 8.0 mg/kg/injection, schedule: Q01DX009 (ip), vehicle: saline) was 124 % of control.

With `COc1ccc(-c2cc(C(=O)Nc3cc(C(F)(F)F)cc(C(F)(F)F)c3)c3ccccc3n2)cc1` the T/C (endpoint: median survival time, dose: 25.0 mg/kg/injection, schedule: Q01DX005 (ip), vehicle: DMSO) was 100 % of control, the T/C (endpoint: median survival time, dose: 50.0 mg/kg/injection, schedule: Q01DX005 (ip), vehicle: DMSO) was 98 % of control and the T/C (endpoint: median survival time, dose: 100.0 mg/kg/injection, schedule: Q01DX005 (ip), vehicle: DMSO) was 98 % of control. The T/C (endpoint: median survival time, dose: 200.0 mg/kg/injection, schedule: Q01DX005 (ip), vehicle: DMSO) was 109 % of control and the T/C (endpoint: median survival time, dose: 400.0 mg/kg/injection, schedule: Q01DX005 (ip), vehicle: DMSO) was 106 % of control.

With `Cn1cnc([N+](=O)[O-])c1Sc1ncn[nH]1` the T/C (endpoint: mean survival time, dose: 12.5 mg/kg/injection, schedule: Q01DX009 (ip), vehicle: saline) was 104 % of control, the T/C (endpoint: mean survival time, dose: 12.5 mg/kg/injection, schedule: Q01DX009 (ip), vehicle: suspension in saline) was 101 % of control and the T/C (endpoint: mean survival time, dose: 25.0 mg/kg/injection, schedule: Q01DX009 (ip), vehicle: saline) was 107 % of control. The T/C (endpoint: mean survival time, dose: 25.0 mg/kg/injection, schedule: Q01DX009 (ip), vehicle: suspension in saline) was 104 % of control, the T/C (endpoint: mean survival time, dose: 50.0 mg/kg/injection, schedule: Q01DX009 (ip), vehicle: saline) was 104 % of control and the T/C (endpoint: mean survival time, dose: 50.0 mg/kg/injection, schedule: Q01DX009 (ip), vehicle: suspension in saline) was 104 % of control. The T/C (endpoint: mean survival time, dose: 100.0 mg/kg/injection, schedule: Q01DX009 (ip), vehicle: saline) was 102 % of control, the T/C (endpoint: mean survival time, dose: 100.0 mg/kg/injection, schedule: Q01DX009 (ip), vehicle: suspension in saline) was 106 % of control and the T/C (endpoint: mean survival time, dose: 200.0 mg/kg/injection, schedule: Q01DX009 (ip), vehicle: saline) was 107 % of control. The T/C (endpoint: mean survival time, dose: 400.0 mg/kg/injection, schedule: Q01DX009 (ip), vehicle: saline) was 104 % of control.

For `O=C(CC(=O)Oc1ccc(Cl)cc1Cl)Oc1ccc(Cl)cc1Cl`, the T/C [1] was 97 % of control, the T/C [2] was 101 % of control and the T/C [3] was 95 % of control.

With `COC(=O)CCN(C(=O)c1ccccc1)c1ccccc1C(=O)OC` the T/C (endpoint: mean survival time, dose: 75.0 mg/kg/injection, schedule: Q04DX003 (ip), vehicle: saline) was 100 % of control, the T/C (endpoint: mean survival time, dose: 150.0 mg/kg/injection, schedule: Q04DX003 (ip), vehicle: saline) was 94 % of control and the T/C (endpoint: mean survival time, dose: 300.0 mg/kg/injection, schedule: Q04DX003 (ip), vehicle: saline) was 100 % of control.

With `COc1ccc(C(=O)NNC(=O)c2ccc(OC)c(OC)c2)cc1OC` the T/C (endpoint: mean survival time, dose: 12.5 mg/kg/injection, schedule: Q01DX009 (ip), vehicle: other) was 92 % of control, the T/C (endpoint: mean survival time, dose: 25.0 mg/kg/injection, schedule: Q01DX009 (ip), vehicle: other) was 93 % of control and the T/C (endpoint: mean survival time, dose: 50.0 mg/kg/injection, schedule: Q01DX009 (ip), vehicle: other) was 92 % of control. For the same compound, the T/C (endpoint: mean survival time, dose: 100.0 mg/kg/injection, schedule: Q01DX009 (ip), vehicle: other) was 108 % of control and the T/C (endpoint: mean survival time, dose: 200.0 mg/kg/injection, schedule: Q01DX009 (ip), vehicle: other) was 107 % of control.

`CCCCC(CC)COc1ccc(N=C(N)N=C(N)N)cc1` (stereo not given) was tested, and the T/C (endpoint: mean survival time, dose: 25.0 mg/kg/injection, schedule: Q04DX002 (ip), vehicle: saline with Tween-80) was 98 % of control and the T/C (endpoint: mean survival time, dose: 50.0 mg/kg/injection, schedule: Q04DX002 (ip), vehicle: saline with Tween-80) was 102 % of control.

For `O=C1c2ccccc2C2c3[nH]c4ccccc4c3CCN12` (stereo not given), the T/C (endpoint: mean survival time, dose: 100.0 mg/kg/injection, schedule: Q01DX009 (ip), vehicle: saline sonified) was 97 % of control, the T/C [1] was 87 % of control and the T/C (endpoint: mean survival time, dose: 200.0 mg/kg/injection, schedule: Q01DX009 (ip), vehicle: saline sonified) was 96 % of control. The T/C [2] was 95 % of control, the T/C (endpoint: mean survival time, dose: 400.0 mg/kg/injection, schedule: Q01DX009 (ip), vehicle: saline sonified) was 97 % of control and the T/C [3] was 93 % of control.

With `CCCCCNCCOC(=O)c1ccc(N)cc1` the T/C (endpoint: mean survival time, dose: 5.0 mg/kg/injection, schedule: Q01DX001 (ip), vehicle: saline) was 100 % of control, the T/C (endpoint: mean survival time, dose: 10.0 mg/kg/injection, schedule: Q01DX001 (ip), vehicle: saline) was 100 % of control and the T/C (endpoint: mean survival time, dose: 20.0 mg/kg/injection, schedule: Q01DX001 (ip), vehicle: saline) was 94 % of control. For the same compound, the T/C (endpoint: mean survival time, dose: 40.0 mg/kg/injection, schedule: Q01DX001 (ip), vehicle: saline) was 104 % of control.

`N#CC(c1ccccc1)C1CCCCC1` (stereo not given) was tested, and the T/C (endpoint: mean survival time, dose: 75.0 mg/kg/injection, schedule: Q01DX009 (ip), vehicle: saline) was 95 % of control, the T/C (endpoint: mean survival time, dose: 150.0 mg/kg/injection, schedule: Q01DX009 (ip), vehicle: saline) was 106 % of control and the T/C (endpoint: mean survival time, dose: 300.0 mg/kg/injection, schedule: Q01DX009 (ip), vehicle: saline) was 108 % of control.

`Cc1cc(NC(=O)CCc2ccc(N)cc2)ccc1S(=O)(=O)F` was tested, and the T/C (endpoint: mean survival time, dose: 25.0 mg/kg/injection, schedule: Q01DX009 (ip), vehicle: Klucel (hydroxypropylcellulose) (HPC)) was 110 % of control, the T/C (endpoint: mean survival time, dose: 50.0 mg/kg/injection, schedule: Q01DX009 (ip), vehicle: Klucel (hydroxypropylcellulose) (HPC)) was 98 % of control and the T/C (endpoint: mean survival time, dose: 100.0 mg/kg/injection, schedule: Q01DX009 (ip), vehicle: Klucel (hydroxypropylcellulose) (HPC)) was 108 % of control. For the same compound, the T/C (endpoint: mean survival time, dose: 200.0 mg/kg/injection, schedule: Q01DX009 (ip), vehicle: Klucel (hydroxypropylcellulose) (HPC)) was 94 % of control and 106 % of control.

For `CC=C(CCCC)CCCC`, the T/C (endpoint: mean survival time, dose: 100.0 mg/kg/injection, schedule: Q01DX001 (ip), vehicle: saline) was 107 % of control, the T/C (endpoint: mean survival time, dose: 200.0 mg/kg/injection, schedule: Q01DX001 (ip), vehicle: saline) was 102 % of control and the T/C (endpoint: mean survival time, dose: 400.0 mg/kg/injection, schedule: Q01DX001 (ip), vehicle: saline) was 103 % of control.

With `CC(=O)CCC(=O)OCc1ccccc1` the T/C (endpoint: mean survival time, dose: 25.0 mg/kg/injection, schedule: Q01DX009 (ip), vehicle: saline with Tween-80) was 102 % of control, the T/C (endpoint: mean survival time, dose: 50.0 mg/kg/injection, schedule: Q01DX009 (ip), vehicle: saline with Tween-80) was 96 % of control and the T/C (endpoint: mean survival time, dose: 100.0 mg/kg/injection, schedule: Q01DX009 (ip), vehicle: saline with Tween-80) was 108 % of control. The T/C (endpoint: mean survival time, dose: 200.0 mg/kg/injection, schedule: Q01DX009 (ip), vehicle: saline with Tween-80) was 101 % of control and the T/C (endpoint: mean survival time, dose: 400.0 mg/kg/injection, schedule: Q01DX009 (ip), vehicle: saline with Tween-80) was 98 % of control.

In the case of `CCN(CC)C(=O)Nc1ccc(Cl)cc1`, the T/C (endpoint: mean survival time, dose: 100.0 mg/kg/injection, schedule: Q04DX002 (ip), vehicle: saline with Tween-80) is reported as 104 % of control and the T/C (endpoint: mean survival time, dose: 200.0 mg/kg/injection, schedule: Q04DX002 (ip), vehicle: saline with Tween-80) is reported as 108 % of control.

In the case of `NC(=O)/C=C/C(=O)c1c(Cl)cccc1Cl`, the T/C (endpoint: mean survival time, dose: 0.78 mg/kg/injection, schedule: Q01DX009 (ip), vehicle: saline with Tween-80) is reported as 98 % of control, the T/C (endpoint: mean survival time, dose: 0.79 mg/kg/injection, schedule: Q01DX009 (ip), vehicle: saline with Tween-80) is reported as 97 % of control and the T/C (endpoint: mean survival time, dose: 1.56 mg/kg/injection, schedule: Q01DX009 (ip), vehicle: saline with Tween-80) is reported as 95 % of control and 97 % of control. For the same compound, the T/C (endpoint: mean survival time, dose: 3.12 mg/kg/injection, schedule: Q01DX009 (ip), vehicle: saline with Tween-80) was 91 % of control and 104 % of control, the T/C (endpoint: mean survival time, dose: 6.25 mg/kg/injection, schedule: Q01DX009 (ip), vehicle: saline with Tween-80) was 97 % of control and 101 % of control and the T/C (endpoint: mean survival time, dose: 12.5 mg/kg/injection, schedule: Q01DX009 (ip), vehicle: saline with Tween-80) was 98 % of control and 100 % of control.
